One data set concerns the target VMAT2 (Rattus norvegicus, UniProt Q01827). Briefly: [3H]-DA uptake inhibition assay in isolated synaptic vesicles. To be noted: for fold less potent in [3H]-DA uptake inhibition than comparator: 7 vs 2, 26 vs 25; for fold more potent in inhibiting [3H]-DA uptake than in binding to the DTBZ binding site: uptake vs DTBZ binding; for fold more potent in [3H]-DA uptake inhibition than S-configured analogs: 18 and 19 vs 14 and 15.

Data set [1] concerns the target DTBZ binding site on VMAT2 (Rattus norvegicus, UniProt Q01827). Briefly: [3H]DTBZ binding assay in rat brain synaptic vesicles. Particulars: for fold less potent at DTBZ binding site than comparator: 7 vs 2, 26 vs 25.
A short description of a further data set: water solubility. Type of data set: physicochemical. Particulars: qualitative statement.
Data set [2] has as its system methamphetamine self-administration. To be noted: animal models; cited from earlier work.
Data set [3] has as its system α4β2* nicotinic acetylcholine receptors (nAChRs). To be noted: cited from earlier work.

Entries after “also recorded” stand apart in the source; their conditions may differ. Where a name gives a salt, the structure may show the parent alone.

Chain of VMAT2 (Q01827 whole entry): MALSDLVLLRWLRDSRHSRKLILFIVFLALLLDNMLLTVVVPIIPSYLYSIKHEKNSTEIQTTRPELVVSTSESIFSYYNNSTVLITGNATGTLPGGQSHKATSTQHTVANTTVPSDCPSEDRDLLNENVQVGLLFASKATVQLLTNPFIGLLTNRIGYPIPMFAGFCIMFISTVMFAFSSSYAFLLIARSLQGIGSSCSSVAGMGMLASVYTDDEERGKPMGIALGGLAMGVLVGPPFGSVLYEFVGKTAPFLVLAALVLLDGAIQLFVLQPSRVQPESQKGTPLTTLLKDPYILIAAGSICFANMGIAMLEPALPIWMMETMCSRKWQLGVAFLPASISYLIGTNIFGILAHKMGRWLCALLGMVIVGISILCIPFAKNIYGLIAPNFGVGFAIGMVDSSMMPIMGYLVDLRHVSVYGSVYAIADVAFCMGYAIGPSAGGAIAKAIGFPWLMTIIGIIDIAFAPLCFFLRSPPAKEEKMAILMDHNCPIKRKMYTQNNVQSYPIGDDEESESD
Chain of DTBZ binding site on VMAT2 (Q01827 whole entry): as above

With `CN1[C@H](CCCc2ccccc2)CC[C@@H]1CCCc1ccccc1` [Compound 26, 1-Methyl-cis-2,5-di(3-phenylpropyl)-pyrrolidine hydrochloride], on VMAT2, the “fold less potent in [3H]-DA uptake inhibition than comparator” value was “about 10 fold” and the “fold more potent in inhibiting [3H]-DA uptake than in binding to the DTBZ binding site” value (“fold more potent in inhibiting” below) is listed as “about 20 fold”. Also, the “fold less potent at DTBZ binding site than comparator” value in data set [1] was 10 fold.
Regarding `c1ccc(C[C@H]2CC[C@@H](Cc3ccccc3)N2)cc1` [Compound 22, cis-2,5-Di(2-benzyl)-pyrrolidine hydrochloride], in “water solubility”, the water solubility entry is “water-soluble”.
For the compound `CN1[C@H](CCc2ccccc2)CC[C@@H]1CCc1ccccc1` [Compound 7, 1-Methyl-cis-2,5-di-(2-phenethyl)-pyrrolidine hydrochloride], at VMAT2, the “fold less potent in [3H]-DA uptake inhibition than comparator” value came to 10 fold and the “fold more potent in inhibiting” value is listed as “about 30 fold”. In data set [1], the “fold less potent at DTBZ binding site than comparator” value is recorded as “about 10 fold”.
As to `c1ccc(CC[C@@H]2CC[C@H](CCc3ccccc3)N2)cc1` [Compound 6, cis-2,5-Di-(2-phenethyl)-pyrrolidine hydrochloride], the “fold more potent in inhibiting” value on VMAT2 is given as “about 100 fold”.
On to `c1ccc(CC[C@H]2CCC[C@@H](CCc3ccccc3)N2)cc1` [Compound 3, reference compound], for which, on VMAT2, the “fold more potent in inhibiting” value was “about 100 fold”.
On the same count and under the same terms, to `c1ccc(CCC[C@@H]2CC[C@H](CCCc3ccccc3)N2)cc1` [Compound 25, Cis-2,5-di(3-phenylpropyl)-pyrrolidine hydrochloride] belongs “about 20 fold”.
Turning to `CN1[C@@H](CCc2ccccc2)CCC[C@H]1CCc1ccccc1` [Compound 2, cis-N-methyl-2,6-diphenethylpiperidine], in data set [2], the effect on self-administration result is recorded as “decreases methamphetamine self-administration; also recorded: does not itself support self-administration”. The “affinity for α4β2* nAChRs” value in data set [3] is “little affinity”.
With `OC[C@@H](c1ccccc1)N1[C@@H](CCc2ccccc2)CC[C@@H]1CCc1ccccc1` [Compound 19, (2′R)-2-(2S,5S)-2,5-Di(2-phenethyl)-tetrahydro-1H-1-pyrrolyl-2-phenylethan-1-ol], the “fold more potent in [3H]-DA uptake inhibition than S-configured analogs” value on VMAT2 is given as “about 10 fold”.
Regarding `CN1[C@@H](CC(=O)c2ccccc2)CCC[C@H]1C[C@H](O)c1ccccc1` [Compound 1, lobeline], the “affinity for α4β2* nAChRs” value in data set [3] was “high potency”.
As to `c1ccc(CC[C@H]2CC[C@H](CCc3ccccc3)N2)cc1` [Compound 10, (2S,5S)-di-(2-phenethyl)-pyrrolidine hydrochloride], the “fold more potent at DTBZ binding site than N-methyl derivative” value in data set [1] (10 vs 11) is “about 10 fold”.
For `OC[C@@H](c1ccccc1)N1[C@H](CCc2ccccc2)CC[C@@H]1CCc1ccccc1` [Compound 18, (2′R)-2-(2S,5R)-2,5-Di-(2-phenethyl)-tetrahydro-1H-1-pyrrolyl-2-phenylethan-1-ol], the “fold more potent in [3H]-DA uptake inhibition than S-configured analogs” value on VMAT2 is “about 10 fold”.

The record behind these values is PMC3726007 (Journal of medicinal chemistry, 2009).
